Patent US20190282476A1, “Cleansing Composition” (Colgate-Palmolive Company, priority 2015, published 2019)

System: typical microorganisms encountered in personal care compositions
Text: The cleansing compositions, e.g. any of Composition 1 or 1.1 to 1.27, include as preservatives, phenoxyethanol, sodium salicylate and a chelating agent (e.g., a salt of ethylenediaminetetraacetic acid). […] It is well known that preservative agents have established minimum inhibitory concentrations, and below such concentrations preservative agents are not effective in preventing microbial growth.

`O=C([O-])c1ccccc1O.[Na+]` [sodium salicylate] was tested, and the MIC was “about 0.019 % by weight”.
